Assay results from patent US11203633B2, “Polynucleotides encoding antibodies or antigen binding fragments thereof that bind pseudomonas perv” (priority 2011, dated 2021).

System: Psl exopolysaccharide (P. aeruginosa PAO1 and isogenic mutants)
Test: Indirect ELISA / FACS binding to PAO1 and isogenic mutants
Parameters: species or system Pseudomonas aeruginosa
Details: for binding (indirect ELISA): FIG. 3A; for binding (ELISA): FIG. 3E
From the text: In addition, duplication of VH CDR3 loop sequences in the libraries (a measure of clonal enrichment during selection), was also found to be higher in the patient library, reaching 88-92%, compared to 15-25% in the naïve library at round 3 (FIG. 1D). Individual scFv phage from affinity selections were next screened by ELISA for reactivity to P. aeruginosa heterologous serotype strains (FIG. 1E). ELISA plates (Nunc; MAXISORP™) were coated with P. aeruginosa strains from overnight cultures as described (DiGiandomenico, A., et al., Infect Immun 72, 7012-7021 (2004)). Diluted antibodies were added to blocked plates for 1 hour, washed, and treated with HRP-conjugated anti-human secondary antibodies for 1 hour followed by development and analysis as described (Ulbrandt, N. D., et al., J Virol 80, 7799-7806 (2006)). The dominant species of phage obtained from whole cell selections with both libraries yielded serotype specific reactivity (data not shown).
For IgG expression, the VH and VL chains of selected antibodies were cloned into human IgG1 expression vectors, co-expressed in HEK293 cells, and purified by protein A affinity chromatography as described (Persic, L., et al., Gene 187, 9-18 (1997)). Human IgG1 antibodies made with the variable regions from these selected serotype independent phage were confirmed for P. aeruginosa specificity and prioritized for subsequent analysis by whole cell binding to dominant clinically relevant serotypes by FACS analysis (FIG. 1F), since this method is more stringent than ELISA. For the flow cytometry based binding assays mid-log phase P. aeruginosa strains were concentrated in PBS to an OD650 of 2.0. After incubation of antibody (10 μg/mL) and bacteria (˜1×10^7 cells) for 1 hr at 4° C. with shaking, washed cells were incubated with an ALEXA FLUOR 647® goat anti-human IgG antibody (Invitrogen, Carlsbad, Calif.) for 0.5 hr at 4° C. Washed cells were stained with BACLIGHT™ green bacterial stain as recommended (Invitrogen, Carlsbad, Calif.). Samples were run on a LSR II flow cytometer (BD Biosciences) and analyzed using BD FacsDiva (v. 6.1.3) and FlowJo (v. 9.2; TreeStar).
This example describes identification of the target of anti-P. aeruginosa antibodies derived from phenotypic screening. Target analysis was performed to test whether the serotype independent antibodies targeted protein or carbohydrate antigens. […] Isogenic mutants were constructed in genes responsible for 0-antigen, alginate, and LPS core biosynthesis; wbpL (O-antigen-deficient); wbpL/algD (O-antigen and alginate deficient); rmlC (O-antigen-deficient and truncated outer core); and galU (O-antigen-deficient and truncated inner core). P. aeruginosa mutants were constructed based on the allele replacement strategy described by Schweizer (Schweizer, H. P., Mol Microbiol 6, 1195-1204 (1992); Schweizer, H. D., Biotechniques 15, 831-834 (1993)). Vectors were mobilized from E. coli strain 517.1 into P. aeruginosa strain PAO1; recombinants were isolated as described (Hoang, T. T., et al., Gene 212, 77-86 (1998)). Gene deletion was confirmed by PCR. P. aeruginosa mutants were complemented with pUCP30T-based constructs harboring wild type genes. […] The rmlC and galU genes were recently shown to be required for biosynthesis of the Psl exopolysaccharide, a repeating pentasaccharide polymer consisting of D-mannose, L-rhamnose, and D-glucose. Cam-003 binding to an isogenic pslA knockout PAO1ΔpslA, was tested, as pslA is required for Psl biosynthesis (Byrd, M. S., et al., Mol Microbiol 73, 622-638 (2009)). Binding of Cam-003 to PAO1ΔpslA was abolished when tested by ELISA (FIG. 3B) and FACS (FIG. 3C), while the LPS molecule in this mutant was unaffected (FIG. 3D). Binding of Cam-003 was restored in a PAO1ΔwbpL/algD/pslA triple mutant complemented with pslA (FIG. 3E) as was the ability of Cam-003 to mediate opsonic killing to complemented PAO1ΔpslA in contrast to the mutant (FIGS. 3F and 3G). […]

“Cam-003: anti-Psl human IgG1 monoclonal antibody; VH SEQ ID NO:1, VL SEQ ID NO:2” was tested, and the “reactivity to LPS purified from PAO1” value was “not observed”, the “binding (indirect ELISA)” value (PAO1 rmlC and galU mutants) was “abolished” and the “binding (indirect ELISA)” value (PAO1 wbpL or wbpL/algD double mutant) was “unaffected”. The “binding (ELISA and FACS)” value (PAO1ΔpslA, FIG. 3B-C) was “abolished”, the “binding (ELISA)” value (PAO1ΔwbpL/algD/pslA triple mutant complemented with pslA) was “restored” and the “binding (ELISA)” value (Pel exopolysaccharide mutant) was “unaffected”.
